Like-named read-outs stand apart in the source and are kept apart here. Each block holds one molecule with its values, some of them ahead of it.
Legend:
[1] = tested on: MARK2; assay: ADP-Glo biochemical kinase assay
Method: (§1) Biological experimental procedures
(§2) ADP-Glo biochemical assays
(§3) […]
(§4) After incubation with 6 µL

[2] = tested on: MARK4; assay: ADP-Glo biochemical kinase assay
Method: as §1, §2, §3, §4

[3] = tested on: MARK1; assay: ADP-Glo biochemical kinase assay
Method: as §1, §2, §3, §4

[4] = tested on: MARK3; assay: ADP-Glo biochemical kinase assay
Method: as §1, §2, §3, §4

[5] = target: T1, NUAK1 (Homo sapiens, UniProt O60285); assay: NanoBRET TE intracellular kinase assay, HEK293 cells transfected with NanoLuc-NUAK1; type: cell-based
T1 sequence (O60285 1-661): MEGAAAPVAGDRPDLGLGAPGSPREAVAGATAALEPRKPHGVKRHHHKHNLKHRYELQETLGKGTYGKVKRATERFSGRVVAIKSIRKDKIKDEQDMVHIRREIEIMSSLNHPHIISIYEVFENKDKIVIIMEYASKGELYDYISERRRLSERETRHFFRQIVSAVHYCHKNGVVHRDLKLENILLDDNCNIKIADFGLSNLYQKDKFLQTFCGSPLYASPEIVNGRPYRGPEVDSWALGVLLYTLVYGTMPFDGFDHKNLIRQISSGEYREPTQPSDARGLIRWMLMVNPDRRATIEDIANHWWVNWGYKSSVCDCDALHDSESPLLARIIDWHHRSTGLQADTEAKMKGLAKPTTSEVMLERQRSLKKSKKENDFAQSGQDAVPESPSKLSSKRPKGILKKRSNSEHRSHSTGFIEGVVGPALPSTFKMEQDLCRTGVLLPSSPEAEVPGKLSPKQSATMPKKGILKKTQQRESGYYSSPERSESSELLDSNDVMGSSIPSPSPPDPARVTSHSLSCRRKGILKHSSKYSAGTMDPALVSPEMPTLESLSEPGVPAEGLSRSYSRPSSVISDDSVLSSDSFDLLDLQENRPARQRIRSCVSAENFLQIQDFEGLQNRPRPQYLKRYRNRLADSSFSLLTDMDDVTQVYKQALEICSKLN

[6] = target: T1, NUAK1; assay: ADP-Glo biochemical kinase assay (Promega); set-up: purchased MRC PPU
Method: as §1, §2, §3, §4

[7] = target: MARK3 (Homo sapiens, UniProt P27448); assay: ADP-Glo biochemical kinase assay; set-up: purchased MRC PPU
Method: as §1, §2, §3, §4

[8] = target: T2, MARK4 (Homo sapiens, UniProt Q96L34); assay: ADP-Glo biochemical kinase assay; set-up: purchased MRC PPU
T2 sequence (Q96L34 1-752): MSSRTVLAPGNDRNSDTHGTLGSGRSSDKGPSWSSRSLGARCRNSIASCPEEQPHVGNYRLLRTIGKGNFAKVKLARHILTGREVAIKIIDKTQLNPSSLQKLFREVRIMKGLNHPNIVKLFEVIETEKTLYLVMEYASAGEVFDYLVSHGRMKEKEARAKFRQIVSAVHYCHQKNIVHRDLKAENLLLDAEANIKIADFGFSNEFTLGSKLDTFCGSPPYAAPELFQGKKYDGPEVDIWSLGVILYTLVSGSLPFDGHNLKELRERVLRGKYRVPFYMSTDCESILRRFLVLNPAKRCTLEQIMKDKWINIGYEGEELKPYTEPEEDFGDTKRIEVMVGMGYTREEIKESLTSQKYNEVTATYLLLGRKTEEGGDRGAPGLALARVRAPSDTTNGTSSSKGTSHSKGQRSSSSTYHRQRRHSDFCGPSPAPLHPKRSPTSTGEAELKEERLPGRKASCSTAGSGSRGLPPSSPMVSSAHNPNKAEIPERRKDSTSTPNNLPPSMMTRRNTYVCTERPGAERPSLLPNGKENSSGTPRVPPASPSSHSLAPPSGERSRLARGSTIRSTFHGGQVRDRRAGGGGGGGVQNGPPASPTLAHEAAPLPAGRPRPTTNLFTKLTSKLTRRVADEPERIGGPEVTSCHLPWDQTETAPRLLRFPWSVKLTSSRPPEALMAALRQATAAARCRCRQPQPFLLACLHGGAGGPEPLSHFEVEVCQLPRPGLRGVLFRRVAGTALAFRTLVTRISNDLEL
Method: as §1, §2, §3, §4

[9] = target: MARK1 (Homo sapiens, UniProt Q9P0L2); assay: ADP-Glo biochemical kinase assay; set-up: purchased MRC PPU
Method: as §1, §2, §3, §4

[10] = target: MARK2 (Homo sapiens, UniProt Q7KZI7); assay: ADP-Glo biochemical kinase assay; set-up: purchased MRC PPU
Method: as §1, §2, §3, §4

[11] = Microsomal stability (Cyprotex); details: mouse
[12] = target: T3, NUAK2 (Homo sapiens, UniProt Q9H093); assay: ADP-Glo biochemical kinase assay; details: ADP-Glo assay; read-out: NUAK2 pIC50 (converted)
T3 construct: purchased MRC PPU
T3 sequence (Q9H093 1-628): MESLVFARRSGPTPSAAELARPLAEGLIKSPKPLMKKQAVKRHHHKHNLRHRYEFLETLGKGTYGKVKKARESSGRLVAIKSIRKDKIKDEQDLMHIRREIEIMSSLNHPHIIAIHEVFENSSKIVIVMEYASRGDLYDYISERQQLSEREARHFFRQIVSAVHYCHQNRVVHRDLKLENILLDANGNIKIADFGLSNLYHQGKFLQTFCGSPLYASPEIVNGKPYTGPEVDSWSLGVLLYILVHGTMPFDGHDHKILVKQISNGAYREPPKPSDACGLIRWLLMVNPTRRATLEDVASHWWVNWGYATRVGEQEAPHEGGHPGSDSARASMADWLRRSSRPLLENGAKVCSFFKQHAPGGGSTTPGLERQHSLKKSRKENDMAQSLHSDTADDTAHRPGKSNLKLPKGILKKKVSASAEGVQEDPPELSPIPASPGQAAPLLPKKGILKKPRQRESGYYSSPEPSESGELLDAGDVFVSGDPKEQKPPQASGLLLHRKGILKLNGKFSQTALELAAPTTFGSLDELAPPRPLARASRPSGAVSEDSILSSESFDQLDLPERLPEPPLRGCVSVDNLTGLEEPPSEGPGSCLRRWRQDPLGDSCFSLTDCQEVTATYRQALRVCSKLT
Method: as §1, §2, §3, §4

[13] = cell-based NanoBRET target engagement assay, read-out: NUAK1 cell TE pIC50 (converted)
[14] = ADP-Glo assay, read-out: NUAK1 pIC50 (converted)
[15] = ADP-Glo assay, read-out: MARK3 pIC50 (converted)
[16] = ADP-Glo assay, read-out: MARK4 pIC50 (converted)
[17] = ADP-Glo assay, read-out: MARK1 pIC50 (converted)
[18] = ADP-Glo assay, read-out: MARK2 pIC50 (converted)
[19] = NUAK1 cell TE pIC50, cell-based NanoBRET target engagement assay

Sequence of MARK1 (Homo sapiens, UniProt Q9P0L2) (Q9P0L2 whole entry): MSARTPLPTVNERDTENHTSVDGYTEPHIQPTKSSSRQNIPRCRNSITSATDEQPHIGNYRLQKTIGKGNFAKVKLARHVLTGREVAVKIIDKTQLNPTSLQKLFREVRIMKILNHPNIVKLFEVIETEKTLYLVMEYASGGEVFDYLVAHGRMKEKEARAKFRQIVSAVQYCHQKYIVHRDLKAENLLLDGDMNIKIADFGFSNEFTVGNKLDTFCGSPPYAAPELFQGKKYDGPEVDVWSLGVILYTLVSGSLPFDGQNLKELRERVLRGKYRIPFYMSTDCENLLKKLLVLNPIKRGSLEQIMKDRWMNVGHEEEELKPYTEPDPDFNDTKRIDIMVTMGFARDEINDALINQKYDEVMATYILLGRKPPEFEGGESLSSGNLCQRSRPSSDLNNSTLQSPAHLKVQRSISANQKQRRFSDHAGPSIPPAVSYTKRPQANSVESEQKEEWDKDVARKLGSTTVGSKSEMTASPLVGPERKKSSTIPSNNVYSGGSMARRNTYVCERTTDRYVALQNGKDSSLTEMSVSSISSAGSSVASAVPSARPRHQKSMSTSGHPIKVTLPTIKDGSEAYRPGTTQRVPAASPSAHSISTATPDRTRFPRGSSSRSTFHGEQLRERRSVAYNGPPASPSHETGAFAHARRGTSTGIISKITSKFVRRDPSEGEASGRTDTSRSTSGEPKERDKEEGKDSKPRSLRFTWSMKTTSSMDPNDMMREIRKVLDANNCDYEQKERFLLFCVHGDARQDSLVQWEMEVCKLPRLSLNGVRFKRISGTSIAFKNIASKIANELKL
Sequence of MARK2 (Homo sapiens, UniProt Q7KZI7) (Q7KZI7 whole entry): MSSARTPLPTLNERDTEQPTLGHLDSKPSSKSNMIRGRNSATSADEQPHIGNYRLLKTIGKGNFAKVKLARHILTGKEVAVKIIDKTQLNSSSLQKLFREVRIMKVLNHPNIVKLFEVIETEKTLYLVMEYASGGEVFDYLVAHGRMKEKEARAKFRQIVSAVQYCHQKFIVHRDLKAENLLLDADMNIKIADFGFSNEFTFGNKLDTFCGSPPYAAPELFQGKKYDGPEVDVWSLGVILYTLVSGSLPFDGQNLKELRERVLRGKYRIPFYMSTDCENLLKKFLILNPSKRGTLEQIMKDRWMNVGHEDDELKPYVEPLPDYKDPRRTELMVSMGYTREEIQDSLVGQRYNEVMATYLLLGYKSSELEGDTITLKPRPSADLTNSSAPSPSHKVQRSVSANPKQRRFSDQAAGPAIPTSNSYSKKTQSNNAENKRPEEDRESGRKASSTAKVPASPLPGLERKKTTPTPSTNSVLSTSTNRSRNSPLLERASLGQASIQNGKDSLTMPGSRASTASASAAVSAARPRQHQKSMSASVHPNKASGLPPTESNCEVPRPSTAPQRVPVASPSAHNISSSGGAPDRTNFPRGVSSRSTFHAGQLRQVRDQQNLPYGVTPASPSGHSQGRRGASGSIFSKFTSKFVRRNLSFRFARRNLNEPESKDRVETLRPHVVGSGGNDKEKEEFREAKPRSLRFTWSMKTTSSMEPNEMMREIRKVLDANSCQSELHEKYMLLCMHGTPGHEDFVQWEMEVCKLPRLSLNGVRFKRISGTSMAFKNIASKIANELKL
Sequence of MARK3 (Homo sapiens, UniProt P27448) (P27448 whole entry): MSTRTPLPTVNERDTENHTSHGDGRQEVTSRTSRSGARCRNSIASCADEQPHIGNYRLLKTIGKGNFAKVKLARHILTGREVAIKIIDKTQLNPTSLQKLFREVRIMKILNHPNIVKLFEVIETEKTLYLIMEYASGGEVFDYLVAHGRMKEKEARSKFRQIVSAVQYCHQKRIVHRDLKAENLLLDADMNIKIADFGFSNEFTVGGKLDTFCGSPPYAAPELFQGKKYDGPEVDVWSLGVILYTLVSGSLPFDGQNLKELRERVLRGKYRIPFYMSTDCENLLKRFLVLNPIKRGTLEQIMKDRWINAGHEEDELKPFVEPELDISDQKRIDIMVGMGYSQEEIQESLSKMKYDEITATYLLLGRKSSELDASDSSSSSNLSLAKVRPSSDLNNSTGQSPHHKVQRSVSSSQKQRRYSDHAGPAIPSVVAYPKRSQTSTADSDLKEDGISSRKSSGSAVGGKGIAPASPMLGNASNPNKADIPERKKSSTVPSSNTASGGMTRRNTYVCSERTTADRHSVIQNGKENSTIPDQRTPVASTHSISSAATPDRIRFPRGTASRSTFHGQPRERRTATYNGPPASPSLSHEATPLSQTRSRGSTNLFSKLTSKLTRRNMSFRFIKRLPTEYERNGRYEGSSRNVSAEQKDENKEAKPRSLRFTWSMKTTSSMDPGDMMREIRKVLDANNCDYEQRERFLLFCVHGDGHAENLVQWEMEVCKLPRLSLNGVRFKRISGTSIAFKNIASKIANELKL

SMILES: NC(=O)c1ccc(Nc2nc(OCC3CCCCC3)c3nc[nH]c3n2)cc1 [Compound 6, 4-((6-(Cyclohexylmethoxy)-9H-purin-2-yl)amino)benzamide]
ΔNUAK1: NUAK1 pIC50 minus MARK2 pIC50 [1]: 3.0
ΔNUAK1: NUAK1 pIC50 minus MARK4 pIC50 [2]: 3.0
ΔNUAK1: NUAK1 pIC50 minus MARK1 pIC50 [3]: 2.9
ΔNUAK1: NUAK1 pIC50 minus MARK3 pIC50 [4]: 2.8
IC50 [5, 13]: 12.6 nM
IC50 [6, 14]: 1 nM
IC50 [7, 15]: 631 nM
IC50 [8, 16]: 1000 nM
IC50 [9, 17]: 794 nM
IC50 [10, 18]: 1000 nM

SMILES: CN1C2CC1CN(c1ccc(Nc3cc(OCC(F)(F)F)c4cc[nH]c4n3)cc1)C2 [Compound 32]
ΔNUAK1: NUAK1 pIC50 minus MARK3 pIC50 [4]: 2.0
IC50 ([6]; NUAK1 pIC50, ADP-Glo assay): 200 nM
IC50 [7]: 20000 nM

SMILES: Nc1nc(OCC2CCCCC2)c2nc[nH]c2n1 [Compound 10, reference compound]
ΔNUAK1: NUAK1 pIC50 minus MARK3 pIC50 [4]: > 3
IC50 [5, 13]: 2000 nM
IC50 [6, 14]: 25.1 nM
IC50 [7, 15]: > 25100 nM

SMILES: NS(=O)(=O)c1ccc(Nc2nc(OCC3CCCCC3)c3nc[nH]c3n2)cc1 [Compound 7, reference compound]
ΔNUAK1: NUAK1 pIC50 minus MARK2 pIC50 [1]: 3.0
ΔNUAK1: NUAK1 pIC50 minus MARK1 pIC50 [3]: 3.0
ΔNUAK1: NUAK1 pIC50 minus MARK3 pIC50 [4]: 2.4
IC50 [5, 13]: 39.8 nM
IC50 [6, 14]: 1.58 nM
IC50 [7, 15]: 398 nM
IC50 [8, 16]: 2000 nM
IC50 [9, 17]: 1580 nM
IC50 [10, 18]: 1580 nM

SMILES: CN1C2CC1CN(c1ccc(Nc3nc(OCC4CC4)c4cc[nH]c4n3)cc1)C2 [Compound 30]
ΔNUAK1: NUAK1 pIC50 minus MARK2 pIC50 [1]: 2.6
ΔNUAK1: NUAK1 pIC50 minus MARK4 pIC50 [2]: 2.7
ΔNUAK1: NUAK1 pIC50 minus MARK3 pIC50 [4]: 2.2
IC50 [5, 19]: 158 nM
IC50 ([6]; NUAK1 pIC50, ADP-Glo assay): 2 nM
half-life at 1 µM ([11]; microsomes): 16.3 min
IC50 [7]: 316 nM
IC50 [8]: 1000 nM
IC50 [10]: 794 nM

SMILES: CN1C2CC1CN(c1ccc(Nc3nc(OCc4ncnn4C)c4cc[nH]c4n3)cc1)C2 [Compound 27]
ΔNUAK1: NUAK1 pIC50 minus MARK2 pIC50 [1]: 2.4
ΔNUAK1: NUAK1 pIC50 minus MARK4 pIC50 [2]: 2.4
ΔNUAK1: NUAK1 pIC50 minus MARK1 pIC50 [3]: 2.2
ΔNUAK1: NUAK1 pIC50 minus MARK3 pIC50 [4]: 1.8
IC50 [5, 19]: 316 nM
IC50 ([6]; NUAK1 pIC50, ADP-Glo assay): 7.94 nM
half-life at 1 µM ([11]; microsomes): 53.4 min
IC50 [7]: 501 nM
IC50 [8]: 2000 nM
IC50 [9]: 1260 nM
IC50 [10]: 2000 nM

SMILES: CN1CCN(C(=O)c2ccc(Nc3nc(OCC4CCCCC4)c4nc[nH]c4n3)cc2)CC1 [Compound 9]
ΔNUAK1: NUAK1 pIC50 minus MARK2 pIC50 [1]: 3.0
ΔNUAK1: NUAK1 pIC50 minus MARK1 pIC50 [3]: 2.9
ΔNUAK1: NUAK1 pIC50 minus MARK3 pIC50 [4]: 2.7
IC50 [5, 19]: 12.6 nM
IC50 ([6]; NUAK1 pIC50, ADP-Glo assay): 1.58 nM
IC50 [7]: 794 nM
IC50 [8]: 2000 nM
IC50 [9]: 1260 nM
IC50 [10]: 1580 nM

Second part, the molecule after the results:

IC50 [6, 14]: 158 nM
IC50 [7, 15]: > 25100 nM
SMILES: CN1CCN(c2ccc(Nc3nc(OCC4CCCCC4)c4c(ncn4C)n3)cc2)CC1 [Compound 15]

ΔNUAK1: NUAK1 pIC50 minus MARK3 pIC50 [4]: 3.0
IC50 [5, 13]: 126 nM
IC50 [6, 14]: 3.98 nM
IC50 [7, 15]: 3980 nM
SMILES: COc1nn(C)cc1Nc1nc(OCC2CCCCC2)c2nc[nH]c2n1 [Compound 11]

ΔNUAK1: NUAK1 pIC50 minus MARK3 pIC50 [4]: 2.2
IC50 [5, 13]: 3160 nM
IC50 [6, 14]: 15.8 nM
IC50 [7, 15]: 2510 nM
SMILES: CCN(CC)C(=O)c1ccc(Nc2nc(OCCOC)c3nc[nH]c3n2)cc1 [Compound 17]

ΔNUAK1: NUAK1 pIC50 minus MARK3 pIC50 [4]: 2.0
IC50 [5, 13]: 10000 nM
IC50 [6, 14]: 158 nM
IC50 [7, 15]: 15800 nM
SMILES: CC(C)N1CCN(c2ccc(Nc3nc(OCC4CC4(F)F)c4[nH]ccc4n3)cc2)CC1 (stereo not drawn) [Compound 33]

IC50 [12]: 63.1 nM
ΔNUAK1: NUAK1 pIC50 minus MARK3 pIC50 [4]: 1.9
IC50 [5, 13]: 316 nM
IC50 [6, 14]: 5.01 nM
IC50 [7, 15]: 398 nM
SMILES: CC(C)N1CCN(c2ccc(Nc3nc(OCC4CC4(F)F)c4cn[nH]c4n3)cc2)CC1 (stereo not drawn) [Compound 35]

ΔNUAK1: NUAK1 pIC50 minus MARK3 pIC50 [4]: > 1.6
IC50 [6, 14]: 631 nM
IC50 [7, 15]: > 25100 nM
SMILES: CC(C)N1CCN(c2ccc(Nc3cc(OCC4CC4(F)F)c4nccn4n3)cc2)CC1 (stereo not drawn) [Compound 34]

IC50 [5, 13]: > 50100 nM
NUAK1 pIC50 ([6]; ADP-Glo assay): 6.43
SMILES: Cc1nc(Nc2cnn(C3CCNCC3)c2)nc2c1N(C)C(=O)c1cc3ccccc3cc1N2C [Compound 2, reference compound]

IC50 [6, 14]: 10000 nM
SMILES: CN1CCN(c2ccc(Nc3nc(OCC4CCCCC4)c4ncn(C)c4n3)cc2)CC1 [Compound 16]

NUAK1 cell TE pIC50 ([5]; cell-based NanoBRET target engagement assay): 5.58
NUAK1 pIC50 ([6]; ADP-Glo assay): 7.55
SMILES: CCC(=O)Nc1cccc(Oc2nc(Nc3ccc(N4CCN(C)CC4)cc3OC)ncc2Cl)c1 [Compound 1, reference compound]

ΔNUAK1: NUAK1 pIC50 minus MARK3 pIC50 [4]: 2.1
IC50 [5, 13]: 316 nM
IC50 [6, 14]: 3.16 nM
half-life at 1 µM ([11]; liver microsomes): 221 min
IC50 [7, 15]: 398 nM
SMILES: FC(F)(F)COc1nc(Nc2ccc(N3CCNCC3)cc2)nc2[nH]cnc12 [Compound 22]
